Measurements reported in PubChem BioAssay AID1845213 (Molecular Pharmacology Branch, DTP, NCI, 2023).
Activity calls are given as the source filed them. The calls were made as follows: active = viability on the fitted dose curve at most 10% of control; inactive = the rest.

System: NCI-H841 complex tumor spheroid viability
Assay: Anticancer human tumor NCI-H841 cell line growth inhibition;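 as to IC50: spheroids exposed to compounds for 7 days before readout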;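 as to viability, T/C: spheroids exposed to compounds for 7 days before readout; 100% = DMSO vehicle control wells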
Settings: for IC50: curve of first compound; for viability, T/C: stronger effect = lower value
Outline: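 Complex tumor spheroids combined malignant cells with endothelial cells and mesenchymal stem cells. DNA-damaging drugs and DNA repair inhibitors were tested alone and in combination, at half-log dilutions down from clinical Cmax (top 10 microM if Cmax unknown), 0.25% DMSO final.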

[1] = second compound 1 µM, first compound 0.0316 µM
[2] = second compound 1 µM, first compound 0.1 µM
[3] = second compound 1 µM, first compound 0.316 µM
[4] = second compound 1 µM, first compound 1 µM
[5] = second compound 1 µM, first compound 3.16 µM
[6] = second compound 1 µM, first compound 10 µM
[7] = second compound 3.16 µM, first compound 0.0316 µM
[8] = second compound 3.16 µM, first compound 0.1 µM
[9] = second compound 3.16 µM, first compound 0.316 µM
[10] = second compound 3.16 µM, first compound 1 µM
[11] = second compound 3.16 µM, first compound 3.16 µM
[12] = second compound 3.16 µM, first compound 10 µM
[13] = second compound 10 µM, first compound 0.0316 µM
[14] = second compound 10 µM, first compound 0.1 µM
[15] = second compound 10 µM, first compound 0.316 µM
[16] = second compound 10 µM, first compound 1 µM
[17] = second compound 10 µM, first compound 3.16 µM
[18] = second compound 10 µM, first compound 10 µM
[19] = second compound 31.6 µM, first compound 0.0316 µM
[20] = second compound 31.6 µM, first compound 0.1 µM
[21] = second compound 31.6 µM, first compound 0.316 µM
[22] = second compound 31.6 µM, first compound 1 µM
[23] = second compound 31.6 µM, first compound 3.16 µM
[24] = second compound 31.6 µM, first compound 10 µM
[25] = second compound 100 µM, first compound 0.0316 µM
[26] = second compound 100 µM, first compound 0.1 µM
[27] = second compound 100 µM, first compound 0.316 µM
[28] = second compound 100 µM, first compound 1 µM
[29] = second compound 100 µM, first compound 3.16 µM
[30] = second compound 100 µM, first compound 10 µM

Compound | IC50 (second compound 1 µM) | IC50 (second compound 3.16 µM) | IC50 (second compound 10 µM) | IC50 (second compound 31.6 µM) | IC50 (second compound 100 µM) | viability, T/C [1] | viability, T/C [2] | viability, T/C [3] | viability, T/C [5] | viability, T/C [6] | viability, T/C [8] | viability, T/C [9] | viability, T/C [10] | viability, T/C [11] | viability, T/C [12] | viability, T/C [13] | viability, T/C [14] | viability, T/C [15] | viability, T/C [17] | viability, T/C [18] | other results
CC(C)n1c(=O)n(C)c2cnc3cc(F)c(-c4ccc(OCCCN5CCCCC5)nc4)cc3c21 + Cn1nnc2c(C(N)=O)ncn2c1=O | > 10 µM | > 10 µM | > 10 µM | 8.52 µM | 3.91 µM | 91.3% | 93.5% | 95.3% | 85.8% | 57.5% | 96.1% | 99.9% | 90.5% | 89.3% | 77.4% | 93.1% | 94.1% | 94.8% | 88% | 62.4% | viability, T/C [4]: 92.3%; viability, T/C [7]: 94.5%; outcome [16]: inactive; viability, T/C [19]: 91%; viability, T/C [20]: 92.2%; viability, T/C [21]: 87.9%; viability, T/C [22]: 88.4%; viability, T/C [23]: 76.2%; viability, T/C [24]: 45.8%; viability, T/C [25]: 84.4%; viability, T/C [26]: 82.8%; viability, T/C [27]: 77.9%; viability, T/C [28]: 75.9%; viability, T/C [29]: 52.9%; viability, T/C [30]: 35.5%
CC1COCCN1c1cc(-c2ccnn2C)c2ccnc(-c3ccn[nH]3)c2n1 (stereo not given) + Cn1nnc2c(C(N)=O)ncn2c1=O | 0.0491 µM | 0.0376 µM | 0.0363 µM | 0.0369 µM | < 0.0316 µM | 66% | 24.1% | 8.33% | 1.79% | 1.91% | 20.8% | 5.48% | 2.34% | 1.67% | 1.99% | 55.4% | 12.6% | 6.12% | 1.4% | 1.82% | viability, T/C [4]: 2.75%; outcome [7]: inactive; viability, T/C [16]: 2.58%; viability, T/C [19]: 56%; viability, T/C [20]: 12.1%; viability, T/C [21]: 4.22%; viability, T/C [22]: 1.97%; viability, T/C [23]: 1.42%; viability, T/C [24]: 1.66%; viability, T/C [25]: 23.6%; viability, T/C [26]: 6.68%; viability, T/C [27]: 1.75%; viability, T/C [28]: 2.09%; viability, T/C [29]: 2.84%; viability, T/C [30]: 1.47%
COc1ccc([C@@H](O)c2cc(-c3ncnc4cc(N5CCOCC5)ccc34)c(F)cc2Cl)nn1 + Cn1nnc2c(C(N)=O)ncn2c1=O | 2.04 µM | 2.01 µM | 2.05 µM | 2.27 µM | 1.82 µM | 100% | 99.1% | 92.7% | 36% | 7.89% | 104% | 97.1% | 70.7% | 36.4% | 8.99% | 103% | 105% | 91% | 32.1% | 9.08% | outcome [4]: inactive; viability, T/C [7]: 102%; viability, T/C [16]: 80.1%; viability, T/C [19]: 97.5%; viability, T/C [20]: 99.7%; viability, T/C [21]: 95.3%; viability, T/C [22]: 79.3%; viability, T/C [23]: 38.1%; viability, T/C [24]: 8.74%; viability, T/C [25]: 97.5%; viability, T/C [26]: 100%; viability, T/C [27]: 87%; viability, T/C [28]: 71%; viability, T/C [29]: 31.5%; viability, T/C [30]: 7.13%
